Measured values published in patent US12715849B2, “Herbicidal tetrazole compounds” (SYNGENTA CROP PROTECTION AG, priority 2020, dated 2026).

What was measured:
Test in all cases: Glasshouse herbicidal test, pre- and post-emergence (Table B1)
Type in all cases: in vivo
[1] = test system: Amaranthus palmeri (AMAPA); details: 130 g/h, evaluated after 13 days; for percentage damage caused to the plant, POST Application AMAPA: post-emergence; for percentage damage caused to the plant, PRE Application AMAPA: pre-emergence
Protocol: (§1) Seeds of a variety of test species are sown in standard soil in pots (Lolium perenne (LOLPE), Amaranthus retoflexus (AMARE), Amaranthus palmeri (AMAPA), Ablution theophrasti (ABUTH), Setaria faberi (SETFA), Echinochloa crus-galli (ECHCG), Ipomoea hederacea (IPOHE)). After cultivation for one day (pre-emergence) or after 8 days cultivation (post-emergence) under controlled conditions in a glasshouse (at 24/16° C., day/night; 14 hours light; 65% humidity), the plants are sprayed with an aqueous spray solution derived from the formulation of the technical active ingredient in acetone/water (50:50) solution containing 0.5% Tween 20 (polyoxyethelyene sorbitan monolaurate, CAS RN 9005-64-5). Compounds are applied at 130 g/h unless otherwise indicated. The test plants are then grown in a glasshouse under controlled conditions in a glasshouse (at 24/16° C., day/night; 14 hours light; 65% humidity) and watered twice daily. After 13 days for pre and post-emergence, the test is evaluated for the percentage damage caused to the plant. The biological activities are shown in the following table on a five-point scale (5=80-100%; 4=60-79%; 3=40-59%; 2=20-39%; 1=0-19%).

[2] = test system: Amaranthus retoflexus (AMARE); details: 130 g/h, evaluated after 13 days; for percentage damage caused to the plant, POST Application AMARE: post-emergence; for percentage damage caused to the plant, PRE Application AMARE: pre-emergence
Protocol: as §1

[3] = test system: Echinochloa crus-galli (ECHCG); details: 130 g/h, evaluated after 13 days; for percentage damage caused to the plant, POST Application ECHCG: post-emergence; for percentage damage caused to the plant, PRE Application ECHCG: pre-emergence
Protocol: as §1

[4] = test system: Ipomoea hederacea (IPOHE); details: 130 g/h, evaluated after 13 days; for percentage damage caused to the plant, POST Application IPOHE: post-emergence; for percentage damage caused to the plant, PRE Application IPOHE: pre-emergence
Protocol: as §1

[5] = test system: Setaria faberi (SETFA); details: 130 g/h, evaluated after 13 days; for percentage damage caused to the plant, POST Application SETFA: post-emergence; for percentage damage caused to the plant, PRE Application SETFA: pre-emergence
Protocol: as §1

Structure (SMILES)	percentage damage caused to the plant, POST Application AMAPA [1]	percentage damage caused to the plant, PRE Application AMAPA [1]	percentage damage caused to the plant, POST Application AMARE [2]	percentage damage caused to the plant, PRE Application AMARE [2]	percentage damage caused to the plant, POST Application ECHCG [3]	percentage damage caused to the plant, PRE Application ECHCG [3]	percentage damage caused to the plant, POST Application IPOHE [4]	percentage damage caused to the plant, PRE Application IPOHE [4]	percentage damage caused to the plant, POST Application SETFA [5]	percentage damage caused to the plant, PRE Application SETFA [5]
COCCS(=O)(=O)Nc1c(OC(F)F)ccc(C(=O)Nc2nnnn2C)c1Cl [Compound 1.014]	5 (5=80-100%)	5 (5=80-100%)	5 (5=80-100%)	3 (3=40-59%)	4 (4=60-79%)	1 (1=0-19%)	3 (3=40-59%)	1 (1=0-19%)	4 (4=60-79%)	1 (1=0-19%)
COCCS(=O)(=O)Nc1c(OC(F)(F)F)ccc(C(=O)Nc2nnnn2C)c1Cl [Compound 1.054]	5 (5=80-100%)	5 (5=80-100%)	5 (5=80-100%)	5 (5=80-100%)	5 (5=80-100%)	1 (1=0-19%)	4 (4=60-79%)	3 (3=40-59%)	4 (4=60-79%)	1 (1=0-19%)
Cn1nnnc1NC(=O)c1ccc(OC(F)(F)F)c(NS(=O)(=O)CC2CC2)c1Cl [Compound 1.056]	5 (5=80-100%)	5 (5=80-100%)	5 (5=80-100%)	5 (5=80-100%)	5 (5=80-100%)	5 (5=80-100%)	5 (5=80-100%)	5 (5=80-100%)	5 (5=80-100%)	5 (5=80-100%)
CCCS(=O)(=O)Nc1c(OC(F)F)ccc(C(=O)Nc2nnnn2C)c1Cl [Compound 1.069]	5 (5=80-100%)	5 (5=80-100%)	5 (5=80-100%)	5 (5=80-100%)	5 (5=80-100%)	5 (5=80-100%)	5 (5=80-100%)	4 (4=60-79%)	5 (5=80-100%)	4 (4=60-79%)
CC(C)CS(=O)(=O)Nc1c(OC(F)F)ccc(C(=O)Nc2nnnn2C)c1Cl [Compound 1.070]	5 (5=80-100%)	4 (4=60-79%)	5 (5=80-100%)	4 (4=60-79%)	4 (4=60-79%)	3 (3=40-59%)	4 (4=60-79%)	2 (2=20-39%)	4 (4=60-79%)	3 (3=40-59%)
CN(c1c(OC(F)F)ccc(C(=O)Nc2nnnn2C)c1Cl)S(C)(=O)=O [Compound 1.071]	5 (5=80-100%)	5 (5=80-100%)	5 (5=80-100%)	5 (5=80-100%)	5 (5=80-100%)	5 (5=80-100%)	4 (4=60-79%)	3 (3=40-59%)	5 (5=80-100%)	5 (5=80-100%)
CCCS(=O)(=O)Nc1c(OC(F)(F)F)ccc(C(=O)Nc2nnnn2C)c1Cl [Compound 1.072]	5 (5=80-100%)	5 (5=80-100%)	5 (5=80-100%)	5 (5=80-100%)		5 (5=80-100%)	5 (5=80-100%)	5 (5=80-100%)	5 (5=80-100%)	5 (5=80-100%)
Cn1nnnc1NC(=O)c1ccc(OC(F)(F)F)c(NS(=O)(=O)C2CC2)c1Cl [Compound 1.073]	5 (5=80-100%)	5 (5=80-100%)	5 (5=80-100%)	5 (5=80-100%)	5 (5=80-100%)	5 (5=80-100%)	5 (5=80-100%)	5 (5=80-100%)	5 (5=80-100%)	5 (5=80-100%)
CC(C)CS(=O)(=O)Nc1c(OC(F)(F)F)ccc(C(=O)Nc2nnnn2C)c1Cl [Compound 1.074]	5 (5=80-100%)	5 (5=80-100%)	5 (5=80-100%)	5 (5=80-100%)	5 (5=80-100%)	4 (4=60-79%)	5 (5=80-100%)	3 (3=40-59%)	5 (5=80-100%)	3 (3=40-59%)
CC(C)S(=O)(=O)Nc1c(OC(F)(F)F)ccc(C(=O)Nc2nnnn2C)c1Cl [Compound 1.076]	5 (5=80-100%)	5 (5=80-100%)	5 (5=80-100%)	5 (5=80-100%)		5 (5=80-100%)	4 (4=60-79%)	3 (3=40-59%)	5 (5=80-100%)	5 (5=80-100%)
CN(c1c(OC(F)(F)F)ccc(C(=O)Nc2nnnn2C)c1Cl)S(C)(=O)=O [Compound 1.077]	5 (5=80-100%)	5 (5=80-100%)	5 (5=80-100%)	5 (5=80-100%)		5 (5=80-100%)	4 (4=60-79%)	4 (4=60-79%)	5 (5=80-100%)	5 (5=80-100%)
CCN(c1c(OC(F)(F)F)ccc(C(=O)Nc2nnnn2C)c1Cl)S(=O)(=O)CC [Compound 1.078]	5 (5=80-100%)	5 (5=80-100%)	5 (5=80-100%)	5 (5=80-100%)		5 (5=80-100%)	4 (4=60-79%)	4 (4=60-79%)	5 (5=80-100%)	5 (5=80-100%)
CCN(c1c(OC(F)(F)F)ccc(C(=O)Nc2nnnn2C)c1Cl)S(C)(=O)=O [Compound 1.079]	5 (5=80-100%)	5 (5=80-100%)	5 (5=80-100%)	5 (5=80-100%)		5 (5=80-100%)	4 (4=60-79%)	4 (4=60-79%)	5 (5=80-100%)	5 (5=80-100%)
